The test system of experiment [1] is adult male rats. Kind of experiment: Postincisional hypersensitivity model of postoperative pain (paw incision, withdrawal threshold to von Frey filaments). The experiment is classed as in vivo, rat. Particulars: intrathecal (i.t.) single drug; for anti-hypersensitivity effect (mechanical hypersensitivity), single drug: 24 h after paw incision surgery, 210 min observation. On the procedure: Animal preparation: Following Animal Care and Use Committee approval, an intrathecal (i.t.) catheter with tip in the lumbar space is inserted as previously described in adult male rats weighing 250 g (Yaksh and Rudy, Physiol Behav. 1976, 7, 1032-1036). One week following the insertion of the i.t. catheter, paw incision surgery is performed as previously described (Brennan et al., Pain 1996, 64, 493-501). Briefly, animals are anesthetized with halothane, and a 1-cm long incision is made in the plantar aspect of the left hind paw starting 0.5 cm from the edge of the heel toward the toe after sterile preparation with 70% ethanol. The plantaris muscle is elevated and incised longitudinally. The wound is closed with 2 mattress sutures of 5.0 silk. Subsequently, withdrawal threshold to von Frey filaments is determined one day after surgery (Chaplanet al., J. Neurosci. Methods, 1994, 53, 55-63). For all testing but pilot dose ranging studies, investigators are blinded to study drug administration. A cut off value of 22 g is used.
Experimental Design: Twenty-four hours after paw incision surgery, single drugs and their combinations are studied: T-62, morphine and NBQX.
Single drug injection: For single drug administration, a volume containing 5 μL drug is used, followed by 10 μL of saline. The anti-hypersensitivity effects for single drugs at three doses with logarithmic spacing are studied over a 210 min observation period with testing at 30 min interval. Dose response curves are first constructed, and ED40 values for single drugs are then determined at the time of peak effect.
Drug interaction: For the combination of T-62 with morphine and NBQX, two injections are performed since the time of peak effect for morphine and NBQX is 30 min earlier than that of T-62 (T-62 is injected 30 min before drug injections). Paw withdrawal thresholds are determined before surgery, before drug injection, and 30, 60, 90, 120, 150, 180, and 210 min after the second drug injection. In addition, a fixed fractional dose ratio of 1:1 (w:w) is used for the combination of T-62 with morphine and NBQX. The dose response curves are then constructed for the combined drugs, and the ED40 values of the combined drugs are calculated at the time point of peak effect. Subsequently, isobolograms are constructed based on the ED40 values from single and combined drug administration.
Materials: T-62 may be obtained from King Pharmaceuticals (Cary, N.C.). T-62 is dissolved in saline with 20% DMSO. Morphine may be purchased from Astra Pharmaceutical Products, Inc. (Westborough, Mass.). NBQX and the remaining chemicals may be purchased from Sigma Chemical Co. (St. Louis, Mo.). Saline is used as vehicle for morphine and NBQX.
Data analysis: Data are presented as mean ±S.E. Withdrawal threshold data are analyzed by two-way analysis of variance followed by Fisher's LSD test. P<0.05 is considered significant. Isobolograms are statistically analyzed by student T test.

Experiment [2] has as its system male Sprague-Dawley rats. Kind of experiment: Neuropathic pain model (Chung model, spinal nerve ligation, withdrawal threshold to von Frey filaments). The experiment is classed as in vivo, rat. Conditions: for anti-allodynic effect (withdrawal threshold): single intrathecal injection, at least 4 weeks after spinal nerve ligation, up to 20 hr. An excerpt: Spinal Nerve Ligation: After Animal Care and Use Committee approval, male Sprague-Dawley rats (Harlan, Indianapolis, Ind., USA) weighing 180-200 g undergo anesthesia as previously described by Kim and Chung (Pain 1992, 50, 355-363). Briefly, under general anesthesia with inhalational halothane, the left L5 and L6 spinal nerves are identified through a small laminotomy and tightly ligated. Approximately one week later, an intrathecal catheter is placed under general anesthesia by insertion under direct vision of a polyethylene catheter through a small slit in the dura at the cisterna magnum, and advanced 8.5 cm such that the catheter tip resides in the lower lumbar intrathecal space. Animals are studied approximately one week later. Ligation of the lumbar spinal nerves results in a primarily unilateral increase in the sensitivity to light touch on the operated side. Sensitivity is assessed via application of calibrated von Frey filaments. The withdrawal threshold is determined using an up down method as previously described by Chaplan et al. (J. Neurosci. Methods 1994, 53, 55-63).
Experimental Design: Animals receive, at least 4 weeks after spinal nerve ligation surgery, and at least 1 week after intrathecal catheter insertion, single injections of vehicle (β-cyclodextrin) or the drug substance, using a randomized and blinded protocol. Withdrawal thresholds are determined at intervals for up to 20 hr after injection.

The target of experiment [3] is T1, adenosine A1 receptors (Rattus norvegicus, UniProt P25099).
T1 sequence (P25099 1-326): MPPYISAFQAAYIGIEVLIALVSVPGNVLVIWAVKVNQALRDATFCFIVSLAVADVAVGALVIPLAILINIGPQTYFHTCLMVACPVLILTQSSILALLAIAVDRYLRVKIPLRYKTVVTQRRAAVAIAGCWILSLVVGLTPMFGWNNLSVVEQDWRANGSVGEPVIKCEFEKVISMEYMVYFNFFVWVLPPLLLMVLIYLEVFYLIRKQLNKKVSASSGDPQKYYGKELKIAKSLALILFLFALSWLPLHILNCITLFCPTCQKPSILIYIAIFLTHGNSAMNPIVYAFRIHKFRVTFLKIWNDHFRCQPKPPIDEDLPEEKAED
Particulars: from Li et al., Pan et al., U.S. Pat. No. 6,248,774 and 6,489,356; cited from earlier work.

Entries after “also recorded” stand apart in the source; their conditions may differ.

Consider `CN1CC[C@]23c4c5ccc(O)c4O[C@H]2[C@@H](O)C=C[C@H]3[C@H]1C5` [Morphine, morphine], for which, in experiment [1], the “time of peak effect after injection” value was 30 min; the “anti-hypersensitivity effect (mechanical hypersensitivity), single drug” value (“anti-hypersensitivity effect” below) was “reduces mechanical hypersensitivity in a time and dose dependent manner”.
On to `Nc1sc2c(c1C(=O)c1ccc(Cl)cc1)CCCC2` [T-62, (2-amino-4,5,6,7-tetrahydrobenzo[b]thiophen-3-yl)(4-chlorophenyl)methanone], for which the “anti-allodynic effect (withdrawal threshold)” value (from here on “anti-allodynic effect”) in experiment [2] is “dose-dependent anti-allodynic effects”. Moreover, the “anti-hypersensitivity effect” value in experiment [1] is “modest effect; also recorded: reduced mechanical hypersensitivity in a time dependent manner”. For the same compound, in experiment [3], the “effect on inflammatory and neuropathic pain” value was “reduce inflammatory and neuropathic pain”.
Take `NS(=O)(=O)c1cccc2c1c([N+](=O)[O-])cc1nc(O)c(O)nc12` [NBQX, 2,3-dihydroxy-6-nitro-7-sulfamoylbenzo(f)quinoxaline]: in experiment [1], the “time of peak effect after injection” value is on record as 30 min; the “anti-hypersensitivity effect” value is “reduces the mechanical hypersensitivity in a time and dose dependent manner”.
Take `Nc1sc2c(c1C(=O)c1cccc3ccccc13)CCC2` [formula (Ic)]: the “relative potency among the three enhancers” value in experiment [2] (Chung model of chronic neuropathic pain, FIG. 8) is “most potent”. For the same compound, the “anti-allodynic effect” value in experiment [2] is reported as “dose-dependent anti-allodynic effects”.
As for `Nc1sc2c(c1C(=O)c1ccccc1)CCS2` [formula (Ib)], in experiment [2], the “anti-allodynic effect” value is “dose-dependent anti-allodynic effects”.

(Values after US20080108603A1, “COMBINATION THERAPY FOR THE TREATMENT OF PAIN” (priority 2006, published 2008).)
